Values of other authors, collected in paper PMC12580894 (Cancer Research Communications, 2025).

What was measured:
[1] = system: untreated advanced urothelial carcinoma
[2] = system: patients with advanced solid tumours; details: berzosertib with cisplatin

CNCc1ccc(-c2cc(-c3nc(-c4ccc(S(=O)(=O)C(C)C)cc4)cnc3N)on2)cc1 [berzosertib]
Hematologic toxicity rates ([1]; GC plus berzosertib versus GC alone): higher | clinical benefit upon the addition of berzosertib ([1]; gemcitabine and cisplatin (GC) with or without berzosertib): no clinical benefit | patients with a confirmed PR ([2]; despite prior platinum exposure, 31 patients): Two | most common AEs ([2]; phase I): hematologic in nature | DLTs observed ([2]; phase I, 31 patients): a grade 3 hypersensitivity reaction and a grade 3 increase in alanine aminotransferase
